Consider one compound from article PMC3876893 (Journal of the American Chemical Society, 2013).

The assay concerns the target CalE8 (Micromonospora echinospora, UniProt Q8KNG1). The assay can be described thus: in vitro reconstitution, HPLC/LCMS of base-released polyketides. It is filed as biochemical. The settings on record: NADPH co-substrate (0.5 mM each), pH 7.0, 24 °C, no CalE7 thioesterase.

Molecules are shown by their SMILES.

Sequence of CalE8 (Q8KNG1 1-1919): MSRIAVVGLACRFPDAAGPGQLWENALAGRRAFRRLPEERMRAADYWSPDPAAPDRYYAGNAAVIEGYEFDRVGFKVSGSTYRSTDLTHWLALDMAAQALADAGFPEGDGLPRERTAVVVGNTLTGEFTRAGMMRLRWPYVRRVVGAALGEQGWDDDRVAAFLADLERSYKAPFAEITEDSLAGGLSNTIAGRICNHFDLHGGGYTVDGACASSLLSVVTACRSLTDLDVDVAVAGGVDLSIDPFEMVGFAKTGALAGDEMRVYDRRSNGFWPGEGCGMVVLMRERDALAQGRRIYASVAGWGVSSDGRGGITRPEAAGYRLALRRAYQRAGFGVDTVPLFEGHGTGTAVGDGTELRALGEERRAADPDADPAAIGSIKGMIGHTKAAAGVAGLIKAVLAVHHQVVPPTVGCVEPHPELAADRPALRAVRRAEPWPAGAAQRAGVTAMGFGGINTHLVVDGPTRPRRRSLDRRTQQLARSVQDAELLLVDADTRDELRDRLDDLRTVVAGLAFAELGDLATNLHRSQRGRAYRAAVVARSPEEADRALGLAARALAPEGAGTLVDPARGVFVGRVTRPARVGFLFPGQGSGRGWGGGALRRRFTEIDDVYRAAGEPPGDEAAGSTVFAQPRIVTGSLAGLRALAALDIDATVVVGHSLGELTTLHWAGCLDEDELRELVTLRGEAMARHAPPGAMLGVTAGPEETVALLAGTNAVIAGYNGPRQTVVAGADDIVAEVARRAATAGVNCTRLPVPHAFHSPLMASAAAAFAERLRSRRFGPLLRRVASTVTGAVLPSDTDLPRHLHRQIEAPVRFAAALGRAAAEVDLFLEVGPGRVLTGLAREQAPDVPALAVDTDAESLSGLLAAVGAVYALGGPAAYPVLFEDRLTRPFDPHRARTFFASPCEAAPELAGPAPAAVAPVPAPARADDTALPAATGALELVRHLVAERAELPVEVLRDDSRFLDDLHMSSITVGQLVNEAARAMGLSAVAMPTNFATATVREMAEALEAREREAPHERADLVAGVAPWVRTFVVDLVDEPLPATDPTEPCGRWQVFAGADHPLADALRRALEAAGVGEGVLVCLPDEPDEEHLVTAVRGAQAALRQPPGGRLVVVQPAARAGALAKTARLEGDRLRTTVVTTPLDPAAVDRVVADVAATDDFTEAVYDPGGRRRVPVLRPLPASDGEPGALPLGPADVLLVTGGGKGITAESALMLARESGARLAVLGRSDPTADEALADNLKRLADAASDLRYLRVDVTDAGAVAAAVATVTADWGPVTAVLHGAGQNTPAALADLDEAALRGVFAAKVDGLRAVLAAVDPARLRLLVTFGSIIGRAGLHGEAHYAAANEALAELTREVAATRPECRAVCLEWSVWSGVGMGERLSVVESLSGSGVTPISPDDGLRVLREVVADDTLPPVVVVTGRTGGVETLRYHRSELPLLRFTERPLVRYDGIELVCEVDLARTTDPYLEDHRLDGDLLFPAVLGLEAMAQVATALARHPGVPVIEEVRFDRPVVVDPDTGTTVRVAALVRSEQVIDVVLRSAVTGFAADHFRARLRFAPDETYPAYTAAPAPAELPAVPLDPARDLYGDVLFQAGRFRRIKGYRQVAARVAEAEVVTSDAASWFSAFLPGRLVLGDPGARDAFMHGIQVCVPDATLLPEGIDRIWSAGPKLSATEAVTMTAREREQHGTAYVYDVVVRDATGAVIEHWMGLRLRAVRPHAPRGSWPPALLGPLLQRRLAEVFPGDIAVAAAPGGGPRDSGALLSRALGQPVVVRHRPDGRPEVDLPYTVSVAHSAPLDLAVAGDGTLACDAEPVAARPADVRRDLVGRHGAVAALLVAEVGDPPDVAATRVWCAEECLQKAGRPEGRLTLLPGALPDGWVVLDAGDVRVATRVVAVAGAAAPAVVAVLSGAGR

Turning to `CC(=O)NCCSC(=O)CC(=O)O` [malonyl-SNAc], the “in vitro reconstitution, HPLC/LCMS of base-released polyketides” value is reported as “polyketide profiles of CalE8 are consistent when MalCoA is replaced by malonyl-SNAc (MalSNAc)”.
